According to patent publication US20250236627A1, “CERTAIN OCTAHYDROFURO[3,4- B]PYRAZINES AS GLP-1 RECEPTOR MODULATORS” (ASTRAZENECA AB, priority 2021, published 2025):

Key:
human GLP-1R receptor = molecular target: T1, human GLP-1R receptor (Homo sapiens, UniProt P43220, L260F); assay: CHOK1 GLP-1R cAMP Assay; format: cell-based; details: CHO-K1 cell line stably expressing human GLP-1R; HTRF cAMP detection
T1 construct: expressed in transfected cells; host or cells: CHO-K1 (ATCC CCL-61)
In short: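 CHO-K1 cells, 800/well, stimulated 20 min at room temperature with compound in HEPES pH 7.4/HBSS/0.1% BSA plus IBMX (1 mM in the added buffer). cAMP measured by HTRF competitive immunoassay after ≥1 h, converted to pM via standard curve. EC50 from 4-parameter logistic fit; % effect relative to saturating GLP1(7-36)NH2.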

[1] = molecular target: T2, endogenous human glucagon-like peptide 1 receptor (GLP-1R) (Homo sapiens, UniProt P43220); assay: EndoC cAMP Accumulation Assay; format: cell-based; details: EndoC-βH1 human pancreatic β cell line; HTRF cAMP assay
T2 construct: endogenous human glucagon-like peptide 1 receptor (GLP-1R) in a pancreatic insulinoma cell line; host or cells: EndoC-βH1 human pancreatic β cell line
In short: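 Thawed EndoC-βH1 cells (3000 per well) were stimulated for 30 min at room temperature in HBSS/25 mM HEPES pH 7.4, 0.1% BSA and 0.5 mM IBMX. cAMP was measured by HTRF competitive immunoassay after 1 h. Responses were fitted by 4-parameter logistic as % activation relative to maximal GIP (82.5 nM), with basal cAMP as zero.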

[2] = molecular target: T3, human phosphodiesterase-3A (Homo sapiens, UniProt Q14432); assay: PDE3 Assay; format: biochemical; details: human recombinant enzyme expressed in Sf9 cells; formation of 5′AMP from cAMP
T3 construct: host or cells: Sf9 cells
Procedure: Evaluation of the effects of compounds on the activity of the human phosphodiesterase-3A is quantified by measuring the formation of 5′AMP from cAMP using a human recombinant enzyme expressed in Sf9 cells.
The test compound, reference compound or water (control) are added to a buffer containing 40 mM Tris/HCl (pH 7.4) and 8 mM MgCl2, 450 nM cAMP and 0.25 μCi [^3H]cAMP.
Thereafter, the reaction is initiated by addition of the enzyme (about 1 U) and the mixture is incubated for 20 min at 22° C.
For basal control measurements, the enzyme is omitted from the reaction mixture.
Following incubation SPA beads are added. After 30 min at 22° C. under shaking, the amount of [^3H]5′AMP is quantified with a scintillation counter (Topcount, Packard).
The results are expressed as a percent inhibition of the control enzyme activity. The standard inhibitory reference compound is milrinone (CAS number 78415-72-2), which is tested in each experiment at several concentrations to obtain an inhibition curve from which its IC50 value is calculated.

T2 sequence (P43220 24-463): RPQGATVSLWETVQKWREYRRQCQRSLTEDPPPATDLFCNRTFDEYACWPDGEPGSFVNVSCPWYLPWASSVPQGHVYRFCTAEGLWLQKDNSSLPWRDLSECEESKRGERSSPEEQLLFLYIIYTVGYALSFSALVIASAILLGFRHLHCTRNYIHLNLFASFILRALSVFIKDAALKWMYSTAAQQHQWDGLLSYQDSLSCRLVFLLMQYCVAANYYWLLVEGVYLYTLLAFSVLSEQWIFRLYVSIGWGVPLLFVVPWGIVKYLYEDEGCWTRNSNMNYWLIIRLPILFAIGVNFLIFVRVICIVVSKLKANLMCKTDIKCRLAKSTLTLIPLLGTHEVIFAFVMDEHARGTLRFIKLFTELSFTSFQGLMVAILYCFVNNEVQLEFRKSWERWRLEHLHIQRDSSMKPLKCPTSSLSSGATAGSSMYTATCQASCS
T1 sequence (P43220 24-463 L260F): as the sequence (P43220 24-463) above, with L237F counted along it
T3 sequence (Q14432 whole entry): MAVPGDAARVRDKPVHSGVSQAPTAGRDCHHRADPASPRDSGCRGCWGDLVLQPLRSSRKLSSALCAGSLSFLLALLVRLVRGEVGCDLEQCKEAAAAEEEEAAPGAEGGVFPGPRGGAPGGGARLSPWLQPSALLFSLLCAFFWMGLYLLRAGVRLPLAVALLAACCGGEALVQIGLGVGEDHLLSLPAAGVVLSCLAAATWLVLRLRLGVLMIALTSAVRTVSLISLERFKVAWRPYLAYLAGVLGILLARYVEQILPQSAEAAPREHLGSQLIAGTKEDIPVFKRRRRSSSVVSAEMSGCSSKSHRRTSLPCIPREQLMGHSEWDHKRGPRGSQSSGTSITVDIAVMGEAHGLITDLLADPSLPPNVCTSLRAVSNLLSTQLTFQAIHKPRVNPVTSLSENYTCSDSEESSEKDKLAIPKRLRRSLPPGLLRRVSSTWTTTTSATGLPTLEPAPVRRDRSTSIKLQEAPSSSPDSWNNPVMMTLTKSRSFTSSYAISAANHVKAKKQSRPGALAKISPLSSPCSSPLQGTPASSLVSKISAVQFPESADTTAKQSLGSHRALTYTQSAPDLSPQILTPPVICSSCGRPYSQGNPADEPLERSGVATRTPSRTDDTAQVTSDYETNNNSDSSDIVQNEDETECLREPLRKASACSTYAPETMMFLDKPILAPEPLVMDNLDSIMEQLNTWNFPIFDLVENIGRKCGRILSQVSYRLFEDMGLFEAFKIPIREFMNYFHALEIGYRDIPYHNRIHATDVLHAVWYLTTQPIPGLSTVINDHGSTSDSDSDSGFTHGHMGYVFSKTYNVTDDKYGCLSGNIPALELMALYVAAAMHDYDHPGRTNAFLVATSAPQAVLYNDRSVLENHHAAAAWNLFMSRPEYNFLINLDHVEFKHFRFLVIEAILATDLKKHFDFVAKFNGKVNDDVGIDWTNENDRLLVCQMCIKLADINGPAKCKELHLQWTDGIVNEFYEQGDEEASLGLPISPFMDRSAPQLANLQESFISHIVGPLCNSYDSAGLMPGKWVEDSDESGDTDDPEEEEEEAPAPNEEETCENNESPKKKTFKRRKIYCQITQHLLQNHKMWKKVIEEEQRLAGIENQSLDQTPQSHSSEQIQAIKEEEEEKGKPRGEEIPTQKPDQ

EC50 (human GLP-1R receptor)	EC50 [1]	IC50 [2]	Structure (SMILES)
2.2 nM	9.5 nM	> 100000 nM	C[C@]1(c2ccc(Cl)cn2)Oc2cccc(N3CCN(Cc4nc5ccc(C(=O)O)cc5n4C[C@@H]4CCO4)[C@H]4COC[C@H]43)c2O1 (single isomer, unassigned) [Example 5b, 2-(((4aR*,7aS*)-4-((R*)-2-(5-Chloropyridin-2-yl)-2-methylbenzo[d][1,3]dioxol-4-yl)hexahydrofuro[3,4-b]pyrazin-1(2H)-yl)methyl)-1-(((S)-oxetan-2-yl)methyl)-1H-benzo[d]imidazole-6-carboxylic acid]
1.5 nM	0.92 nM	> 100000 nM	C[C@]1(c2ccc(Cl)cc2F)Oc2cccc(N3CCN(Cc4nc5ccc(C(=O)O)cc5n4C[C@@H]4CCO4)[C@H]4COC[C@H]43)c2O1 (single isomer, unassigned) [Example 6a, 2-(((4aR*,7aS*)-4-((R*)-2-(4-Chloro-2-fluorophenyl)-2-methylbenzo[d][1,3]dioxol-4-yl)hexahydrofuro[3,4-b]pyrazin-1(2H)-yl)methyl)-1-(((S)-oxetan-2-yl)methyl)-1H-benzo[d]imidazole-6-carboxylic acid]
15 nM	17 nM	> 100000 nM	C[C@]1(c2ccc(Cl)cn2)Oc2cccc(N3CCN(Cc4nc5ccc(C(=O)O)cc5n4C[C@@H]4CCCO4)[C@H]4COC[C@H]43)c2O1 (single isomer, unassigned) [Example 8a, 2-(((4aR*,7aS*)-4-((R*)-2-(5-Chloropyridin-2-yl)-2-methylbenzo[d][1,3]dioxol-4-yl)hexahydrofuro[3,4-b]pyrazin-1(2H)-yl)methyl)-1-(((S)-tetrahydrofuran-2-yl)methyl)-1H-benzo[d]imidazole-6-carboxylic acid]
1.5 nM	3.9 nM	> 100000 nM	C[C@]1(c2ccc(Cl)cn2)Oc2cccc(N3CCN(Cc4nc5c(F)cc(C(=O)O)cc5n4C[C@@H]4CCO4)[C@H]4COC[C@H]43)c2O1 (single isomer, unassigned) [Example 9a, 2-(((4aR*,7aS*)-4-((R*)-2-(5-Chloropyridin-2-yl)-2-methylbenzo[d][1,3]dioxol-4-yl)hexahydrofuro[3,4-b]pyrazin-1(2H)-yl)methyl)-4-fluoro-1-(((S)-oxetan-2-yl)methyl)-1H-benzo[d]imidazole-6-carboxylic acid]
320 nM	2100 nM	> 100000 nM	C[C@]1(c2ccc(Cl)cn2)Oc2cccc(N3CCN(Cc4nc5c(F)cc(C(=O)O)cc5n4C[C@@H]4CCO4)[C@H]4COC[C@H]43)c2O1 (single isomer, unassigned) [Example 9d, 2-(((4aR*,7aS*)-4-((R*)-2-(5-Chloropyridin-2-yl)-2-methylbenzo[d][1,3]dioxol-4-yl)hexahydrofuro[3,4-b]pyrazin-1(2H)-yl)methyl)-4-fluoro-1-(((S)-oxetan-2-yl)methyl)-1H-benzo[d]imidazole-6-carboxylic acid]

Second part, the compound before the results:

Structure (SMILES)	EC50 (human GLP-1R receptor)	EC50 [1]	IC50 [2]
COc1cc(C(=O)O)cc2c1nc(CN1CCN(c3cccc4c3O[C@@](C)(c3ccc(Cl)cn3)O4)[C@@H]3COC[C@@H]31)n2C[C@@H]1CCCO1 (relative stereo) [Example 2a, 2-((4aR*,7aS*)-4-((R*)-2-(5-Chloropyridin-2-yl)-2-methylbenzo[d][1,3]dioxol-4-yl)hexahydrofuro[3,4-b]pyrazin-1(2H)-yl)methyl)-4-methoxy-1-(((S)-tetrahydrofuran-2-yl)methyl)-1H-benzo[d]imidazole-6-carboxylic acid]	3.8 nM	3.1 nM	> 100000 nM
C[C@]1(c2ccc(Cl)cn2)Oc2cccc(N3CCN(Cc4nc5c(F)cc(C(=O)O)cc5n4CC4(CC#N)CC4)[C@H]4COC[C@H]43)c2O1 (single isomer, unassigned) [Example 21]	3 nM	3 nM	> 100000 nM
C[C@]1(c2ccc(Cl)cn2)Oc2cccc(N3CCN(Cc4nc5c(F)cc(C(=O)O)cc5n4CC4(C#N)CC4)[C@H]4COC[C@H]43)c2O1 (single isomer, unassigned) [Example 22a]	2.7 nM	3.2 nM	> 100000 nM
C[C@]1(c2ccc(Cl)cn2)Oc2cccc(N3CCN(Cc4nc5c(Cl)cc(C(=O)O)cc5n4CC4(C#N)CC4)[C@H]4COC[C@H]43)c2O1 (single isomer, unassigned) [Example 23a]	1.8 nM	5 nM	> 100000 nM
C[C@]1(c2ccc(Cl)cn2)Oc2cccc(N3CCN(Cc4nc5ccc(C(=O)O)cc5n4CC4(CC#N)CC4)[C@H]4COC[C@H]43)c2O1 (single isomer, unassigned) [Example 25]	5.1 nM	8 nM	> 100000 nM
